Consider 25 molecules from patent US9133163B2, “Dihydropyrazole GPR40 modulators” (Bristol-Myers Squibb Company, priority 2012, dated 2015).

Broadly, the EC50 is the concentration at which the effect is half-maximal.

Structures are written as SMILES.

For this assay, the target named is hGPR40 (Homo sapiens, UniProt O14842). In words: FDSS-based intracellular calcium assay. Format: cell-based. More on the design: 3xFLAG; expressed in transfected cells. As to conditions: intracellular Ca2+ response, cells expressing GPR40. The protocol:
FDSS-Based Intracellular Calcium Assay
Compounds are dissolved in DMSO and diluted to desired concentrations with assay buffer and added to the cells as 3× solution (20 μL per well). Run fluorescence/luminescence reader FDSS (Hamamatsu) to read intracellular Ca^2+ response.
For orientation: Calcium assays in cells follow changes in intracellular calcium, usually with a dye or a luminescent sensor.

Chain of hGPR40 (O14842 whole entry): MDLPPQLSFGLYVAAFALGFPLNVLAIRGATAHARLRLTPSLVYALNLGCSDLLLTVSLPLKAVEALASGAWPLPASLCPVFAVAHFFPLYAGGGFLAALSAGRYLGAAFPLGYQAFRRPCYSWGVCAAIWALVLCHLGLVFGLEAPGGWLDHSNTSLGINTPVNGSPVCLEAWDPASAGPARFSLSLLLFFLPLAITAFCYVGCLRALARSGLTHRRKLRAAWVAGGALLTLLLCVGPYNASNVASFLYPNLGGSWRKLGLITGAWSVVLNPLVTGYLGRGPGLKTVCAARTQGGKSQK

In the case of `COc1cc(F)c(F)c(N2CCC(Oc3ccc(N4N=C(C(F)(F)F)[C@@H](C)[C@@H]4CC(=O)O)cc3)C(C)C2)c1` (single isomer, unassigned) [Example 8 (Isomer 1)], the EC50 is 796 nM.

For the molecule `COc1cc(F)c(F)c(N2CCC(Oc3ccc(N4N=C(C(F)(F)F)[C@@H](C)[C@@H]4CC(=O)O)cc3)C(C)C2)c1` (single isomer, unassigned) [Example 8 (Isomer 2)], the concentration for a half-maximal effect (EC50) came out at 237 nM. In the case of `CCOc1cc(F)c(F)c(N2CCC(Oc3ccc(N4N=C(C(F)(F)F)[C@@H](C)[C@@H]4CC(=O)O)cc3)C(C)C2)c1` (single isomer, unassigned) [Example 10 (Isomer 1)], the EC50 turned out to be 1200 nM. For `CCOc1cc(F)c(F)c(N2CCC(Oc3ccc(N4N=C(C(F)(F)F)[C@@H](C)[C@@H]4CC(=O)O)cc3)C(C)C2)c1` (single isomer, unassigned) [Example 10 (Isomer 2)] the value was 315 nM; for `COc1ccc(F)c(N2CCC(Oc3ccc(N4N=C(c5ncccn5)C(C)C4CC(=O)O)cc3)CC2)c1` (single isomer, unassigned) [Example 22, Isomer 1, 2-(1-(4-((1-(2-Fluoro-5-methoxyphenyl)piperidin-4-yl)oxy)phenyl)-4-methyl-3-(pyrimidin-2-yl)-4,5-dihydro-1H-pyrazol-5-yl)acetic acid], 2040 nM.

`COc1ccc(F)c(N2CCC(Oc3ccc(N4N=C(c5ncccn5)C(C)C4CC(=O)O)cc3)CC2)c1` (single isomer, unassigned) [Example 22, Isomer 2, 2-(1-(4-((1-(2-Fluoro-5-methoxyphenyl)piperidin-4-yl)oxy)phenyl)-4-methyl-3-(pyrimidin-2-yl)-4,5-dihydro-1H-pyrazol-5-yl)acetic acid]: the 50% effective concentration (EC50) stood at 5570 nM. Under `CCOc1ccc(F)c(N2CCC(Oc3ccc(N4N=C(C(F)(F)F)[C@@H](C)[C@@H]4CC(=O)O)cc3)C(CC)C2)c1` (single isomer, unassigned) [Example 25 (Isomer 1)] stands 1020 nM. Turning to `CCOc1ccc(F)c(N2CCC(Oc3ccc(N4N=C(C(F)(F)F)[C@@H](C)[C@@H]4CC(=O)O)cc3)C(C(C)C)C2)c1` (single isomer, unassigned) [Example 26 (Isomer 1)], the EC50 amounted to 1900 nM. For `CCOc1ccc(F)c(N2CCC(Oc3ccc(N4N=C(C(F)(F)F)[C@@H](C)[C@@H]4CC(=O)O)cc3)C(C(C)C)C2)c1` (single isomer, unassigned) [Example 26 (Isomer 2)] the value was 82 nM; for `COc1ccc(F)c(N2CCC(Oc3ccc(N4N=C(C(F)(F)F)[C@@H](C)[C@@H]4CC(=O)O)cc3)C(F)C2)c1` (single isomer, unassigned) [Example 57 (Isomer 1)], 292 nM; for `COc1ccc(F)c(N2CCC(Oc3ccc(N4N=C(C(F)(F)F)[C@@H](C)[C@@H]4CC(=O)O)cc3)C(F)C2)c1` (single isomer, unassigned) [Example 57 (Isomer 2)], 119 nM.

Consider `COc1ccc(F)c(N2CCC(Oc3ccc(N4N=C(C(F)(F)F)[C@@H](C)[C@@H]4CC(=O)O)cc3)C(F)C2)c1` (single isomer, unassigned) [Example 57 (Isomer 3)], for which the EC50 was determined as 716 nM. Under `CCC1C(C(F)(F)F)=NN(c2ccc(OC3CCN(c4cc(OC)ncc4Cl)CC3C)cc2)C1CC(=O)O` (single isomer, unassigned) [Example 86, Isomer 1, 2-(1-(4-((1-(5-Chloro-2-methoxypyridin-4-yl)-3-methylpiperidin-4-yl)oxy)phenyl)-4-ethyl-3-(trifluoromethyl)-4,5-dihydro-1H-pyrazol-5-yl)acetic acid] stands 73 nM; under `CCC1C(C(F)(F)F)=NN(c2ccc(OC3CCN(c4cc(OC)ncc4Cl)CC3C)cc2)C1CC(=O)O` (single isomer, unassigned) [Example 86, Isomer 2, 2-(1-(4-((1-(5-Chloro-2-methoxypyridin-4-yl)-3-methylpiperidin-4-yl)oxy)phenyl)-4-ethyl-3-(trifluoromethyl)-4,5-dihydro-1H-pyrazol-5-yl)acetic acid], 599 nM; under `CCC1C(C(F)(F)F)=NN(c2ccc(OC3CCN(c4cc(OC)ncc4Cl)CC3C)cc2)C1CC(=O)O` (single isomer, unassigned) [Example 86, Isomer 3, 2-(1-(4-((1-(5-Chloro-2-methoxypyridin-4-yl)-3-methylpiperidin-4-yl)oxy)phenyl)-4-ethyl-3-(trifluoromethyl)-4,5-dihydro-1H-pyrazol-5-yl)acetic acid], 1930 nM. For `CC[C@@H]1C(C(F)(F)F)=NN(c2ccc(OC3CCN(c4cc(OC)ccc4F)CC3)cc2)[C@H]1CC(=O)O` (single isomer, unassigned) [Example 88, Isomer 2] the value was 7450 nM; for `COc1ccc(F)c(N2CCC(Oc3ccc(N4N=C(C(F)(F)F)[C@@H](CC(C)C)[C@@H]4CC(=O)O)cc3)CC2)c1` (single isomer, unassigned) [Example 89, Isomer 1], 7960 nM; for `COc1ccc(F)c(N2CCC(Oc3ccc(N4N=C(C(F)(F)F)[C@@H](CC(C)C)[C@@H]4CC(=O)O)cc3)CC2)c1` (single isomer, unassigned) [Example 89, Isomer 2], 390 nM. Under `COc1ccc(F)c(N2CCC(Oc3ccc(N4N=C(C(F)(F)F)[C@@H](CC5CC5)[C@@H]4CC(=O)O)cc3)CC2)c1` (single isomer, unassigned) [Example 90, Isomer 1] stands 1630 nM; under `COc1ccc(F)c(N2CCC(Oc3ccc(N4N=C(C(F)(F)F)[C@@H](CC5CC5)[C@@H]4CC(=O)O)cc3)CC2)c1` (single isomer, unassigned) [Example 90, Isomer 2], 156 nM. Turning to `COc1cc(N2CCC(Oc3ccc(N4N=C(C(F)(F)F)[C@@H](C)[C@@H]4CC(=O)O)cc3)C(F)C2)c(Cl)cn1` (single isomer, unassigned) [Example A1, Isomer 1], the EC50 was 184 nM. Under `COc1cc(N2CCC(Oc3ccc(N4N=C(C(F)(F)F)[C@@H](C)[C@@H]4CC(=O)O)cc3)C(F)C2)c(Cl)cn1` (single isomer, unassigned) [Example A1, Isomer 2] stands 218 nM; under `CC(C)Oc1ccc(F)c(N2CCC(Oc3ccc(N4N=C(C(F)(F)F)[C@@H](C)[C@@H]4CC(=O)O)cc3)CC2)c1` [Example 9, 2-((4S,5S)-1-(4-((1-(2-Fluoro-5-isopropoxyphenyl)piperidin-4-yl)oxy)phenyl)-4-methyl-3-(trifluoromethyl)-4,5-dihydro-1H-pyrazol-5-yl)acetic acid], 374 nM; under `CC(C)COc1cc(F)c(F)c(N2CCC(Oc3ccc(N4N=C(C(F)(F)F)[C@@H](C)[C@@H]4CC(=O)O)cc3)CC2)c1` [Example 18, 2-((4S,5S)-1-(4-((1-(2,3-Difluoro-5-isobutoxyphenyl)piperidin-4-yl)oxy)phenyl)-4-methyl-3-(trifluoromethyl)-4,5-dihydro-1H-pyrazol-5-yl)acetic acid], 4760 nM. For `COc1ccc(C#N)c(N2CCC(Oc3ccc(N4N=C(C(F)(F)F)[C@@H](C)[C@@H]4CC(=O)O)cc3)CC2)c1` [Example 21, 2-((4S,5S)-1-(4-((1-(2-Cyano-5-methoxyphenyl)piperidin-4-yl)oxy)phenyl)-4-methyl-3-(trifluoromethyl)-4,5-dihydro-1H-pyrazol-5-yl)acetic acid] the value was 680 nM.
